Structures can show the parent of a compound that is named as a salt. A value given as a limit tells only on which side of the number the result lay.

For orientation: Ki means a dissociation constant, usually derived from enzyme kinetics or from competition with a known ligand.

T1 sequence (P50406 whole entry): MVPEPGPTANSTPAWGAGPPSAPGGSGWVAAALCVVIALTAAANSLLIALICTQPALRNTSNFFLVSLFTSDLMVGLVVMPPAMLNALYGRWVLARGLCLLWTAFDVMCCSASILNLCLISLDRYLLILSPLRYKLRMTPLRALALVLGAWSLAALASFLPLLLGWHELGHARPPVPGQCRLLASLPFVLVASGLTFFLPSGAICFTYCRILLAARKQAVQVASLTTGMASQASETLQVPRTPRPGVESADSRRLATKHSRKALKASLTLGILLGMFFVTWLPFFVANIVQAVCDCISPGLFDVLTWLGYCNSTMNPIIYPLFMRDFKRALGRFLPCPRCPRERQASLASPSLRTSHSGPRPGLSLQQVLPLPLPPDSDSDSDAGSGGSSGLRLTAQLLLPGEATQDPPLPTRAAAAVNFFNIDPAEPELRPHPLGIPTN

The first assay addresses T1, h-5-HT6 receptor (Homo sapiens, UniProt P50406).
T1 construct: expressed in transfected cells
The experiment in a line: 5-HT6 receptor binding assay (displacement of [3H]-LSD).
Conditions: not given
The method, then:
Displacement of radioligands binding to the following cloned human receptors
1. Preparation of Membranes by Ultrasonic Treatment and Differential Centrifugation
Cells from stable clonal cell lines expressing the corresponding receptor (5-HT6, α1-adrenergic, dopamine D2 or histamine H1 receptors) were washed with PBS (w/o Ca^++, Mg^++) and harvested in PBS with 0.02% EDTA. The cells were collected by centrifugation at 500 g for 10 min. at 4° C., washed with PBS and centrifuged (500 g, 10 min. 4° C.). The pellets were stored at −80° C. until use. F or membrane preparation, the thawed cell pellet was resuspended in ice-cold sucrose buffer (0.25 M sucrose, 10 mM Hepes (pH 7.4), 1 mM Phenylmethylsulfonyl fluoride (PMSF) in DMSO, 5 μg/ml Pepstatin-A, 3 mM EDTA, 0.025% Bacitracin) and homogenized with a Branson Sonifier W-250 (Settings: Timer 4; Output Control 3; Duty Cycle constant; 2 to 3 cycles). Cell disruption was checked with the aid of a microscope. Remaining unbroken cells were pelleted at 1.000 g for 10 min. at 4° C. The sucrose buffer supernatant was then centrifuged at 60.000 g for 1 h at 4° C. (Beckman Ultrazentrifuge XL 80). The pellet was resuspended in 30 ml ice-cold Tris buffer (20 mM TRIS (pH 7.4), 5 μg/ml Pepstatin A, 0.1 mM PMSF, 3 mM EDTA) by pipetting through a 10 ml serological pipet and centrifuged for 1 h at 4° C. at 60.000 g. A final resuspension was performed in a small volume of ice-cold Tris buffer (see above) by pressing through a serological pipet followed by ultrasonic treatment with a Branson Sonifier W-250 (Settings: Timer 1; Output Control 3; Duty Cycle constant; 1 cycle). Protein concentration was determined (BCA-Kit; Pierce) and aliquots stored at −80° C. or in liquid nitrogen for long-term storage.
2. Receptor Binding Experiments
All receptor binding experiments were carried out in the corresponding assay buffer in a total volume of 200 μl in the presence of various concentrations of test compound (10^−5 M to 10^−9 M, tenfold serial dilution, duplicate determinations). The assays were terminated by filtration on polyethylenimine (PEI 0.1% or 0.3%) presoaked Packard Unifilter Plates (GF/C or GF/B) with a Tomtec Machill U 96 well-plate harvester. After the plates had been dried for 2 h at 55° C. in a drying chamber scin tillation cocktail (BetaPlate Scint; PerkinElmer) was added. Radioactivity was measured in a Microbeta Trilux two hours after the addition of the scintillation mixture. Data derived from liquid scintillation counting were analysed by iterative non-linear regression analysis with the use of the Statistical Analysis System (SAS): a program similar to “LIGAND” as described by Munson and Rodbard (Analytical Biochemistry 107, 220-239 (1980).
a) 5-HT6 Receptor Binding Assay
HEK293 cells stably expressing the h-5-HT6 receptor (NCBI Reference Sequence XM 001435) were cultured in RPMI1640 medium supplemented with 25 mM HEPES, 10% fetal calf serum and 1-2 mM glutamine. The membrane preparation was performed as described in section 1. […] Non-specific binding was defined with 1 μM methiothepin. The binding reaction was carried out for 3.5 h at room temperature. During the incubation, the plates were shaken on a plate shaker at 100 rpm and terminated by filtration on Packard Unifilter GF/C (0.1% PEI) plates, followed by 2 wash cycles with ice-cold 50 mM Tris-HCl, 5 mM CaCl2.
Data derived from liquid scintillation counting were analyzed by iterative non-linear regression analysis with the use of the Statistical Analysis System (SAS): a program similar to “LIGAND” as described by Munson and Rodbard (Anal. Biochem. 1980, 107, 220-239). Fitting was performed according to formulae described by Feldman (Anal. Biochem. 1972, 48, 317-338). IC50, nH and Ki values were expressed as geometrical mean.
As to `O=S(=O)(Nc1cccc(N2CCNCC2)c1)c1ccccc1OC(F)F` [Example 30, 2-Difluoromethoxy-N-(3-piperazin-1-yl-phenyl)-benzenesulfonamide Trifluoroacetate], the Ki is less than 10 nM. The same measure, in the same setting: in the case of `O=S(=O)(Nc1ccc(F)c(N2CCNCC2)c1)c1cccc(OC(F)F)c1` [Example 26, 3-Difluoromethoxy-N-(4-fluoro-3-piperazin-1-yl-phenyl)-benzenesulfonamide Hydrochloride] it was less than 50 nM.

Staying with this assay, now noted: membranes of HEK293 cells expressing h-5-HT6 receptor, 1 nM [3H]-LSD; read-out: Ki(5HT6).
With `O=S(=O)(Nc1ccc(OCCF)c(N2CCNCC2)c1)c1cccc(OC(F)F)c1` [Example 11, 3-Difluoromethoxy-N-[4-(2-fluoroethoxy)-3-piperazin-1-yl-phenyl]-benzenesulfonamide Hydrochloride], the Ki was less than 10 nM. Same read-out and setting: for `O=S(=O)(Nc1ccc(OC(F)(F)F)c(N2CCNCC2)c1)c1cccc(OC(F)F)c1` [Example 6, 3-Difluoromethoxy-N-(3-piperazin-1-yl-4-trifluoromethoxy-phenyl)-benzenesulfonamide] the value was less than 20 nM; for `COc1ccc(N(CCCF)S(=O)(=O)c2cccc(OC(F)F)c2)cc1N1CCNCC1` [Example 17, 3-Difluoromethoxy-N-(3-fluoropropyl)-N-(4-methoxy-3-piperazin-1-yl-phenyl)-benzenesulfonamide Hydrochloride], less than 50 nM. Same read-out and setting: for `CCCN(c1ccc(OC)c(N2CCNCC2)c1)S(=O)(=O)c1cccc(OC(F)F)c1` [Example 18, 3-Difluoromethoxy-N-(4-methoxy-3-piperazin-1-yl-phenyl)-N-propyl-benzene-sulfonamide Hydrochloride] the value was less than 50 nM; for `COc1ccc(NS(=O)(=O)c2cccc(OC(F)F)c2)cc1N1CCN(C)CC1` [Example 25, 3-Difluoromethoxy-N-[4-methoxy-3-(4-methyl-piperazin-1-yl)-phenyl]-benzenesulfonamide], less than 10 nM; for `COc1ccc(N(C)S(=O)(=O)c2cccc(OC(F)F)c2)cc1N1CCNCC1` [Example 2, 3-Difluoromethoxy-N-(4-methoxy-3-piperazin-1-yl-phenyl)-N-methyl-benzene-sulfonamide Hydrochloride], less than 20 nM. Same read-out and setting: in the case of `COc1ccc(NS(=O)(=O)c2cccc(OC(F)F)c2)cc1N1CCNCC1` [Example 1, 3-Difluoromethoxy-N-(4-methoxy-3-piperazin-1-yl-phenyl)-benzenesulfonamide Hydrochloride] it was less than 10 nM; in that of `O=S(=O)(Nc1ccc(F)c(N2CCNCC2)c1)c1cccc2c1OC(F)(F)O2` [Example 27, 2,2-Difluoro-benzo[1,3]dioxole-4-sulfonic acid (4-fluoro-3-piperazin-1-yl-phenyl)-amide Hydrochloride], less than 50 nM. On to `COc1ccc(NS(=O)(=O)c2ccc(OC(F)F)cc2)cc1N1CCNCC1` [Example 15, 4-Difluoromethoxy-N-(4-methoxy-3-piperazin-1-yl-phenyl)-benzenesulfonamide Hydrochloride], for which the Ki is less than 50 nM. On the same count and under the same terms, for `COc1ccc(N(C)S(=O)(=O)c2cccc(OC(F)F)c2)cc1N1CCN(C)CC1` [Example 24, 3-Difluoromethoxy-N-[4-methoxy-3-(4-methyl-piperazin-1-yl)-phenyl]-N-methyl-benzenesulfonamide Hydrochloride] the value was less than 10 nM.

On to `O=S(=O)(Nc1cccc(N2CCNCC2)c1)c1cccc2c1OC(F)(F)O2` [Example 29, 2,2-Difluoro-benzo[1,3]dioxole-4-sulfonic acid (3-piperazin-1-yl-phenyl)-amide Hydrochloride], for which the Ki was less than 10 nM. On the same count and under the same terms, in the case of `COc1ccc(S(=O)(=O)Nc2ccc(OC)c(N3CCNCC3)c2)cc1OC(F)F` [Example 13, 3-Difluoromethoxy-4-methoxy-N-(4-methoxy-3-piperazin-1-yl-phenyl)-benzenesulfonamide Hydrochloride] it was less than 10 nM; in that of `O=S(=O)(Nc1ccc(OCCF)c(N2CCNCC2)c1)c1cccc2c1OC(F)(F)O2` [Example 12, 2,2-Difluoro-benzo[1,3]dioxole-4-sulfonic acid (4-(2-fluoroethoxy)-5-piperazin-1-yl-phenyl)-amide Hydrochloride], less than 50 nM.

Take `COc1ccc(NS(=O)(=O)c2ccc(OC(F)F)cc2)cc1N1CCN(C)CC1` [Example 3, 4-Difluoromethoxy-N-[4-methoxy-3-(4-methyl-piperazin-1-yl)-phenyl]-benzenesulfonamide]: the Ki was less than 20 nM. Same read-out and setting: in the case of `COc1ccc(NS(=O)(=O)c2ccccc2OC(F)F)cc1N1CCNCC1` [Example 14, 2-Difluoromethoxy-N-(4-methoxy-3-piperazin-1-yl-phenyl)-benzenesulfonamide Trifluoroacetate] it was less than 10 nM; in that of `O=S(=O)(Nc1cccc(N2CCNCC2)c1)c1cccc(OC(F)F)c1` [Example 28, 3-Difluoromethoxy-N-(3-piperazin-1-yl-phenyl)-benzenesulfonamide Hydrochloride], less than 50 nM. On the same count and under the same terms, in the case of `CCN(c1ccc(OC)c(N2CCN(C)CC2)c1)S(=O)(=O)c1cccc(OC(F)F)c1` [Example 16, 3-Difluoromethoxy-N-ethyl-N-[4-methoxy-3-(4-methyl-piperazin-1-yl)-phenyl]-benzenesulfonamide Hydrochloride] it was less than 10 nM. Same read-out and setting: for `COc1c(F)cc(NS(=O)(=O)c2cccc(OC(F)F)c2)cc1N1CCNCC1` [Example 9, 3-Difluoromethoxy-N-(3-fluoro-4-methoxy-5-piperazin-1-yl-phenyl)-benzenesulfonamide Hydrochloride] the value was less than 50 nM. Turning to `COc1ccc(N(C)S(=O)(=O)c2cccc3c2OC(F)(F)O3)cc1N1CCNCC1` [Example 23, 2,2-Difluoro-benzo[1,3]dioxole-4-sulfonic acid methyl-(4-methoxy-3-piperazin-1-yl-phenyl)-amide Hydrochloride], the Ki was less than 50 nM. With `COc1ccc(NS(=O)(=O)c2cccc3c2OC(F)(F)O3)cc1N1CCNCC1` [Example 4, 2,2-Difluoro-benzo[1,3]dioxole-4-sulfonic Acid (4-methoxy-3-piperazin-1-yl-phenyl)-amide Hydrochloride], the Ki is less than 10 nM. Take `COc1ccc(S(=O)(=O)Nc2cccc(N3CCNCC3)c2)cc1OC(F)F` [Example 31, 3-Difluoromethoxy-4-methoxy-N-(3-piperazin-1-yl-phenyl)-benzenesulfonamide Trifluoroacetate]: the Ki was less than 50 nM. As to `COc1cc(Cl)c(NS(=O)(=O)c2cccc(OC(F)F)c2)cc1N1CCNCC1` [Example 19, N-(2-Chloro-4-methoxy-5-piperazin-1-yl-phenyl)-3-difluoromethoxy-benzene-sulfonamide Trifluoroacetate], the Ki is less than 50 nM. Still for that read-out and setting: for `COc1ccc(NS(=O)(=O)c2cc(OC(F)F)ccc2OC)cc1N1CCNCC1` [Example 8, 5-Difluoromethoxy-2-methoxy-N-(4-methoxy-3-piperazin-1-yl-phenyl)-benzene-sulfonamide Hydrochloride] the value was less than 10 nM; for `CN1CCN(c2cc(NS(=O)(=O)c3cccc(OC(F)F)c3)ccc2OC(F)(F)F)CC1` [Example 20, 3-Difluoromethoxy-N-[3-(4-methyl-piperazin-1-yl)-4-trifluoromethoxy-phenyl]-benzenesulfonamide Hydrochloride], less than 10 nM; for `CCN(c1ccc(OC)c(N2CCNCC2)c1)S(=O)(=O)c1cccc2c1OC(F)(F)O2` [Example 22, 2,2-Difluoro-benzo[1,3]dioxole-4-sulfonic acid ethyl-(4-methoxy-3-piperazin-1-yl-phenyl)-amide Hydrochloride], less than 50 nM.
